This passage reports IC50 results from patent publication US20250114374A1, “BCL-2 INHIBITORS” (Newave Pharmaceutical Inc., priority 2021, published 2025).

In this assay the test system is RS4; 11 with G101V mutation. Kind of assay: In vitro anti-proliferation assay (ATPlite luminescence) in BCL-2-dependent ALL cell line RS4;11 with G101V mutation. The assay is classed as cell-based. To be noted: cellular anti-proliferative IC50, about 72 hours, medium with 10% FBS, ATPlite, read-out: RS411-G101V IC50. The procedure: Cell antiproliferation was assayed by PerkinElmer ATPlite™ Luminescence Assay System. Briefly, the various test cancer cell lines were plated at a density of about 1×10^4 cells per well in Costar 96-well plates, and were incubated with different concentrations of compounds for about 72 hours in medium supplemented with 10% FBS. One lyophilized substrate solution vial was then reconstituted by adding 5 mL of substrate buffer solution, and was agitated gently until the solution was homogeneous. About 50 μL of mammalian cell lysis solution was added to 100 μL of cell suspension per well of a microplate, and the plate was shaken for about five minutes in an orbital shaker at ˜700 rpm. This procedure was used to lyse the cells and to stabilize the ATP. Next, 50 μL substrate solution was added to the wells and microplate was shaken for five minutes in an orbital shaker at ˜700 rpm. Finally, the luminescence was measured by a PerkinElmer TopCount® Microplate Scintillation Counter. Such assays, carried out with a range of doses of test compounds, allowed the determination of the cellular anti-antiproliferative IC50 of the compounds of the present invention.
The following table lists the IC50 values of another study for certain compounds of the invention.
On the technique in general: Cellular ATP, detected with luciferase, serves as a proxy for viable cell number.

Structures can show the parent of a compound that is named as a salt. Where two headings read alike, the source gives them in different places.

On to `CC(C)Oc1ccccc1[C@H]1CN(C2CCC(C)(O)CC2)CCN1C1CC2(CCN(c3ccc(C(=O)NS(=O)(=O)c4ccc(NCC5CCC(C)(O)CC5)c([N+](=O)[O-])c4)c(N4c5cc6cc[nH]c6nc5O[C@H]5COCC[C@@H]54)c3)CC2)C1` (stereo partly drawn) [Example 108, 2-[(3R,8S)-2,5-dioxa-9,15,17-triazatetracyclo[8.7.0.0^{3,8}.0^{12,16}]heptadeca-1(10),11,13,16-tetraen-9-yl]-4-{2-[(2S)-2-(2-isopropoxyphenyl)-4-[(1r,4r)-4-hydroxy-4-methylcyclohexyl]piperazin-1-yl]-7-azaspiro[3.5]nonan-7-yl}-N-[3-nitro-4-({[(1r,4r)-4-hydroxy-4-methylcyclohexyl]methyl}amino)benzenesulfonyl]benzamide], for which the concentration for half-maximal inhibition (IC50) turned out to be 7.2 nM. Turning to `CC(C)Oc1ccccc1[C@H]1CN(C2CCC(C)(O)CC2)CCN1C1CC2(CCN(c3ccc(C(=O)NS(=O)(=O)c4ccc(NCC5CCC(C)(O)CC5)c([N+](=O)[O-])c4)c(N4c5cc6cc[nH]c6nc5O[C@H]5COCC[C@@H]54)c3)CC2)C1` (stereo partly drawn) [Example 109, 2-[(3R,8S)-2,5-dioxa-9,15,17-triazatetracyclo[8.7.0.0^{3,8}.0^{12,16}]heptadeca-1(10),11,13,16-tetraen-9-yl]-4-{2-[(2S)-2-(2-isopropoxyphenyl)-4-[(1s,4s)-4-hydroxy-4-methylcyclohexyl]piperazin-1-yl]-7-azaspiro[3.5]nonan-7-yl}-N-[3-nitro-4-({[(1r,4r)-4-hydroxy-4-methylcyclohexyl]methyl}amino)benzenesulfonyl]benzamide], the 50% inhibitory concentration (IC50) was 17.2 nM. The same measure, in the same setting: the figure for `COc1nc(CN2CCN(C3CC4(CCN(c5ccc(C(=O)NS(=O)(=O)c6ccc(NCC7CCC(C)(O)CC7)c([N+](=O)[O-])c6)c(N6c7cc8cc[nH]c8nc7O[C@H]7COCC[C@@H]76)c5)CC4)C3)[C@@H](c3ccccc3OC(C)C)C2)cc2c1OCCC2(C)C` (stereo partly drawn) [Example 110, 2-[(3R,8S)-2,5-dioxa-9,15,17-triazatetracyclo[8.7.0.0^{3,8}.0^{12,16}]heptadeca-1(10),11,13,16-tetraen-9-yl]-4-{2-[(2S)-2-(2-isopropoxyphenyl)-4-({8-methoxy-4,4-dimethyl-2H,3H-pyrano[2,3-c]pyridin-6-yl}methyl)piperazin-1-yl]-7-azaspiro[3.5]nonan-7-yl}-N-[3-nitro-4-({[(1r,4r)-4-hydroxy-4-methylcyclohexyl]methyl}amino)benzenesulfonyl]benzamide hydrochloride] is 23.8 nM; for `COc1cc(CN2CCN(C3CC4(CCN(c5ccc(C(=O)NS(=O)(=O)c6ccc(NCC7CCC(C)(O)CC7)c([N+](=O)[O-])c6)c(N6c7cc8cc[nH]c8nc7O[C@H]7COCC[C@@H]76)c5)CC4)C3)[C@@H](c3ccccc3OC(C)C)C2)cnc1N1CCOC[C@H]1C` (stereo partly drawn) [Example 111, 2-[(3R,8S)-2,5-dioxa-9,15,17-triazatetracyclo[8.7.0.0^{3,8}.0^{12,16}]heptadeca-1(10),11,13,16-tetraen-9-yl]-4-{2-[(2S)-2-(2-isopropoxyphenyl)-4-({5-methoxy-6-[(3R)-3-methylmorpholin-4-yl]pyridin-3-yl}methyl)piperazin-1-yl]-7-azaspiro[3.5]nonan-7-yl}-N-[3-nitro-4-({[(1r,4r)-4-hydroxy-4-methylcyclohexyl]methyl}amino)benzenesulfonyl]benzamide] it is 10.7 nM. Still for that read-out and setting: as for `Cc1ccccc1[C@@H]1CN(C2CCC(C)(O)CC2)CCN1C1CC2(CCN(c3ccc(C(=O)NS(=O)(=O)c4ccc(NCC5CCC(C)(O)CC5)c([N+](=O)[O-])c4)c(N4c5cc6cc[nH]c6nc5O[C@H]5COCC[C@@H]54)c3)CC2)C1` (stereo partly drawn) [Example 112, 2-[(3R,8S)-2,5-dioxa-9,15,17-triazatetracyclo[8.7.0.0^{3,8}.0^{12,16}]heptadeca-1(10),11,13,16-tetraen-9-yl]-4-{2-[(2R)-2-(2-methylphenyl)-4-[(1r,4r)-4-hydroxy-4-methylcyclohexyl]piperazin-1-yl]-7-azaspiro[3.5]nonan-7-yl}-N-[3-nitro-4-({[(1r,4r)-4-hydroxy-4-methylcyclohexyl]methyl}amino)benzenesulfonyl]benzamide], the figure is 10.9 nM. Regarding `Cc1ccccc1[C@@H]1CN(C2CCC(C)(O)CC2)CCN1C1CC2(CCN(c3ccc(C(=O)NS(=O)(=O)c4ccc(NCC5CCC(C)(O)CC5)c([N+](=O)[O-])c4)c(N4c5cc6cc[nH]c6nc5O[C@H]5COCC[C@@H]54)c3)CC2)C1` (stereo partly drawn) [Example 113, 2-[(3R,8S)-2,5-dioxa-9,15,17-triazatetracyclo[8.7.0.0^{3,8}.0^{12,16}]heptadeca-1(10),11,13,16-tetraen-9-yl]-4-{2-[(2R)-2-(2-methylphenyl)-4-[(1s,4s)-4-hydroxy-4-methylcyclohexyl]piperazin-1-yl]-7-azaspiro[3.5]nonan-7-yl}-N-[3-nitro-4-({[(1r,4r)-4-hydroxy-4-methylcyclohexyl]methyl}amino)benzenesulfonyl]benzamide hydrochloride], the half-maximal inhibitory concentration (IC50) (hydrochloride) was found to be 8.2 nM.

On to `Cc1ccccc1[C@@H]1CN(C2CCOCC2)CCN1C1CC2(CCN(c3ccc(C(=O)NS(=O)(=O)c4ccc(NCC5CCC(C)(O)CC5)c([N+](=O)[O-])c4)c(N4c5cc6cc[nH]c6nc5O[C@H]5COCC[C@@H]54)c3)CC2)C1` (stereo partly drawn) [Example 114, 2-[(3R,8S)-2,5-dioxa-9,15,17-triazatetracyclo[8.7.0.0^{3,8}.0^{12,16}]heptadeca-1(10),11,13,16-tetraen-9-yl]-4-{2-[(2R)-2-(2-methylphenyl)-4-(oxan-4-yl)piperazin-1-yl]-7-azaspiro[3.5]nonan-7-yl}-N-[3-nitro-4-({[(1r,4r)-4-hydroxy-4-methylcyclohexyl]methyl}amino)benzenesulfonyl]benzamide], for which the IC50 amounted to 11.8 nM. On to `CC(C)Oc1ccccc1[C@H]1CN(Cc2ccc(F)c(F)c2)CCN1C1CC2(CCN(c3ccc(C(=O)NS(=O)(=O)c4ccc(NCC5CCC(C)(O)CC5)c([N+](=O)[O-])c4)c(N4c5cc6cc[nH]c6nc5O[C@H]5COCC[C@@H]54)c3)CC2)C1` (stereo partly drawn) [Example 115, 4-{2-[(2S)-4-[(3,4-difluorophenyl)methyl]-2-(2-isopropoxyphenyl)piperazin-1-yl]-7-azaspiro[3.5]nonan-7-yl}-2-[(3R,8S)-2,5-dioxa-9,15,17-triazatetracyclo[8.7.0.0^{3,8}.0^{12,16}]heptadeca-1(10),11,13,16-tetraen-9-yl]-N-[3-nitro-4-({[(1r,4r)-4-hydroxy-4-methylcyclohexyl]methyl}amino)benzenesulfonyl]benzamide], for which the 50% inhibitory concentration (IC50) worked out at 27.3 nM. Same read-out and setting: as for `CC(C)Oc1ccccc1[C@H]1CN(Cc2ccc(N3CCOC[C@H]3C)cc2)CCN1C1CC2(CCN(c3ccc(C(=O)NS(=O)(=O)c4ccc(NCC5CCC(C)(O)CC5)c([N+](=O)[O-])c4)c(N4c5cc6cc[nH]c6nc5O[C@H]5COCC[C@@H]54)c3)CC2)C1` (stereo partly drawn) [Example 116, 2-[(3R,8S)-2,5-dioxa-9,15,17-triazatetracyclo[8.7.0.0^{3,8}.0^{12,16}]heptadeca-1(10),11,13,16-tetraen-9-yl]-4-{2-[(2S)-2-(2-isopropoxyphenyl)-4-({4-[(3R)-3-methylmorpholin-4-yl]phenyl}methyl)piperazin-1-yl]-7-azaspiro[3.5]nonan-7-yl}-N-[3-nitro-4-({[(1r,4r)-4-hydroxy-4-methylcyclohexyl]methyl}amino)benzenesulfonyl]benzamide], the figure is 28.7 nM. Still for that read-out and setting: the figure for `CC(C)Oc1ccccc1[C@H]1CN(Cc2cnc3c(c2)OCCO3)CCN1C1CC2(CCN(c3ccc(C(=O)NS(=O)(=O)c4ccc(NCC5CCC(C)(O)CC5)c([N+](=O)[O-])c4)c(N4c5cc6cc[nH]c6nc5O[C@H]5COCC[C@@H]54)c3)CC2)C1` (stereo partly drawn) [Example 117, 2-[(3R,8S)-2,5-dioxa-9,15,17-triazatetracyclo[8.7.0.0^{3,8}.0^{12,16}]heptadeca-1(10),11,13,16-tetraen-9-yl]-4-{2-[(2S)-4-{2H,3H-[1,4]dioxino[2,3-b]pyridin-7-ylmethyl}-2-(2-isopropoxyphenyl)piperazin-1-yl]-7-azaspiro[3.5]nonan-7-yl}-N-[3-nitro-4-({[(1r,4r)-4-hydroxy-4-methylcyclohexyl]methyl}amino)benzenesulfonyl]benzamide] is 13.2 nM; for `COc1cc(CN2CCN(C3CC4(CCN(c5ccc(C(=O)NS(=O)(=O)c6ccc(NCC7CCC(C)(O)CC7)c([N+](=O)[O-])c6)c(N6c7cc8cc[nH]c8nc7O[C@H]7COCC[C@@H]76)c5)CC4)C3)[C@H](c3ccccc3C)C2)cnc1OC` (stereo partly drawn) [Example 118, 4-{2-[(2R)-4-[(5,6-dimethoxypyridin-3-yl)methyl]-2-(2-methylphenyl)piperazin-1-yl]-7-azaspiro[3.5]nonan-7-yl}-2-[(3R,8S)-2,5-dioxa-9,15,17-triazatetracyclo[8.7.0.0^{3,8}.0^{12,16}]heptadeca-1(10),11,13,16-tetraen-9-yl]-N-[3-nitro-4-({[(1r,4r)-4-hydroxy-4-methylcyclohexyl]methyl}amino)benzenesulfonyl]benzamide] it is 4.4 nM.

The term IC50 denotes the point on the concentration scale where inhibition reaches its midpoint.
